{
  "source": "paper PMC3929365",
  "about": "“Benzimidazoisoquinolines: A New Class of Rapidly Metabolized Aryl Hydrocarbon Receptor (AhR) Ligands that Induce AhR-Dependent Tregs and Prevent Murine Graft-Versus-Host Disease” (PLoS ONE, 2014)",
  "key": {"[1]": {"test": "Serum liver chemistry profile", "type": "in vivo, B6D2F1 mice", "details": "10 mg/kg/day i.p., 2 days", "protocol": "Supplementary file pone.0088726.s004.docx: Table S1 Serum liver chemistry profile. B6D2F1 mice were give 10 mg/kg/day of 10-Cl-BBQ or vehicle i.p. After 2 days serum was collected and analyzed. n = 5 mice per treatment, average values are shown(± standard deviation). ALT – Alanine transaminase, SGPT – serum glutamic pyruvate transaminase. (DOCX) Click here for additional data file.\nTable S1. Serum liver chemistry profile. B6D2F1 mice were give 10 mg/kg/day of 10-Cl-BBQ or vehicle i.p. After 2 days serum was collected and analyzed. n = 5 mice per treatment, average values are shown(± standard deviation). ALT – Alanine transaminase, SGPT – serum glutamic pyruvate transaminase."}, "[2]": {"test": "Pharmacokinetics: serum concentration after single i.p. injection", "type": "in vivo, C57Bl/6 mice", "details": "10 mg/kg i.p., mouse", "protocol": "C57Bl/6 mice were injected i.p. with 10 mg/kg 10-Cl-BBQ. At defined time points, blood was collected by cardiac puncture. Serum was harvested and protein was precipitated by adding a 4-fold volume of ice-cold acetonitrile. The supernatant was collected and analyzed on a QTRAP 4000 LC/MS/MS instrument using an Agilent C8 UPLC column. The serum concentration of 10-Cl-BBQ was determined using a standard curve prepared using dilutions of 10,000; 5,000; 1,000; 500; 100; 50 and 10 pg/ml of 10-Cl-BBQ. The mean values (n = 2–3 mice per time point) are shown with SEM. Pharmacokinetic parameters were calculated using PKsolver software.\nFigure 2 Pharmacokinetics of 10-Cl-BBQ. C57BL/6 mice were given 10 mg/kg 10-Cl-BBQ by i.p. injection. A) Blood was collected at the indicated times by cardiac puncture. The serum was processed to remove protein and the samples were analyzed by QTRAP 4000 LC/MS/MS. The serum concentration of 10-Cl-BBQ was determined from a standard curve based on known concentrations of 10-Cl-BBQ. B) Liver tissue was harvested and processed for mRNA analysis. CYP1A1 gene expression was determined relative to the β-actin gene, and the fold-induction was determined by the ΔΔCt method using the vehicle-treated samples as a control. The mean values are shown with SEM for 2–3 mice per time point."}, "CD4+ T cells": {"system": "CD4+ T cells", "test": "Donor CD4+ T cell proliferation in vivo (CFSE dilution) during the GVH response", "parameters": "species or system B6D2F1 host mice", "details": "10 mg/kg/d i.p. for two days", "protocol": "A. Splenocytes from C57Bl/6 mice were labeled with CFSE and activated in vitro with anti-CD3 and anti-CD28 in the presence of 100 nM 10-Cl-BBQ or DMSO for 72 h. B. C57Bl/6 donor T cells were labeled with CFSE and injected into B6D2F1 host mice to initiate the GVH response. Host mice (n = 5 per group) were treated with vehicle or 10-Cl-BBQ i.p. (10 mg/kg/d) for two days. Donor cells were identified by gating on CD4^+CFSE^+ cells. […] (TIF) Click here for additional data file."}},
  "data": [
    {"smiles": "O=c1c2cccc3cccc(c32)c2nc3ccc(Cl)cc3n12", "note": "[10-Cl-BBQ, 10-chloro-7H-benzimidazo[2,1-a]benzo[de]isoquinolin-7-one]", "values": [
      {"measurement": "acute hepatic toxicity in mice", "setting": "[1]", "value": "nor did it induce acute hepatic toxicity"},
      {"measurement": "ALT (SGPT)", "setting": "[1]; serum, mean (± SD), n = 5", "value": "34.4 (± 10.4) U/l"},
      {"measurement": "Albumin", "setting": "[1]; serum, mean (± SD), n = 5", "value": "3.3 (± 0.1) g/dl"},
      {"measurement": "Alkaline Phosphatase", "setting": "[1]; serum, mean (± SD), n = 5", "value": "51.4 (± 8.3) U/l"},
      {"measurement": "Bilirubin", "setting": "[1]; serum, mean (± SD), n = 5", "value": "0.12 (± 0) mg/dl"},
      {"measurement": "Blood Urea Nitrogen", "setting": "[1]; serum, mean (± SD), n = 5", "value": "10.2 (± 1.5) mg/dl"},
      {"measurement": "Cholesterol", "setting": "[1]; serum, mean (± SD), n = 5", "value": "119.2 (± 10.4) mg/dl"},
      {"measurement": "Glucose", "setting": "[1]; serum, mean (± SD), n = 5", "value": "201.2 (± 10.4) mg/dl"},
      {"measurement": "Gamma Glutamyl Transferase", "setting": "[1]; serum, n = 5", "value": 0, "unit": "U/l"},
      {"measurement": "absorption rate constant (ka)", "setting": "[2]", "value": 1.2, "unit": "h⁻¹"},
      {"measurement": "time required to reach Cmax (Tmax)", "setting": "[2]", "value": 1.64, "unit": "h"},
      {"measurement": "total clearance/bioavailability (CL/F)", "setting": "[2]", "value": 32.5, "unit": "mL/min"},
      {"measurement": "half-life", "setting": "[2]; C57Bl/6, serum, ip, one compartment model", "value": "~2", "unit": "h"},
      {"measurement": "AUC(0-inf)", "setting": "[2]; C57Bl/6, serum, ip, read-out: area under the concentration-time curve (AUC0-∞)", "value": 102, "unit": "ng·h/mL"},
      {"measurement": "Cmax", "setting": "[2]; C57Bl/6, serum, ip, read-out: maximum concentration reached in serum (Cmax)", "value": 21.5, "unit": "ng/mL"},
      {"measurement": "Vd/F", "setting": "[2]; C57Bl/6, serum, ip, read-out: volume of distribution/bioavailability (V/F)", "value": 5.66, "unit": "L"},
      {"measurement": "proliferation of activated T cells in vivo", "setting": "CD4+ T cells", "value": "did not inhibit proliferation"}
    ]}
  ]
}
